Experimental data published in patent US7994326B2 (Northwestern University, priority 2003, dated 2011).

Legend:
Assay type in all cases: biochemical
[1] = biological target: T1, murine iNOS (Mus musculus, UniProt P29477); test: NOS enzyme inhibitory assay (hemoglobin capture), iNOS; conditions: Table 1a; for Ki: apparent Ki calculated from IC50, Km […], read-out: calc. Ki iNOS; for IC50: murine iNOS, 10 μM L-arginine
T1 construct: made in house; host or cells: E. coli (plasmid pCWiNOS)
From the text: (§1) All of the NOS isoforms used were recombinant enzymes overexpressed in E. coli from different sources. Nitric oxide formation from NOS was monitored by the hemoglobin capture assay as described in the literature.
Enzyme inhibitory assay. All of the NOS isoforms used are recombinant enzymes overexpressed in E. coli from different sources.
iNOS expression: An overnight culture of pCWiNOS was used to inoculate (1:100) larger cultures of Terrific Broth media (12 g/L tryptone, 24 g/L yeast extract, 4 mL/L glycerol, 17 mM KH2PO4, and 72 mM K2HPO4) containing 50 μg/mL ampicillin and 34 μg/mL chloramphenicol at 37° C. At an OD600 of ˜0.5, the culture was cooled to 25° C. and induced by the addition of 1 mM IPTG (final concentration). After approximately 24 h of growth at 25° C., the cells were pelleted at 5300×g, transferred to 50 mL conical tubes, and stored at −80° C.
iNOS purification: Cell pellets from 1.0 L of culture were resuspended in sonication buffer (50 mM Hepes, pH 7.4, 10% glycerol, 10 μg/mL benzamidine, 5 μg/mL leupeptin, 0.2 mM of PMSF, and 1 μg/mL each of pepstatin, chymostatin, and antipain) and lysed by sonication. Centrifugation for 20 min at 13000×g yielded supernatant which contained iNOS active enzyme. iNOS supernatant was loaded onto 1 g of a 2′,5′-ADP-Sepharose 4B resin column. The column was then washed with 20 ml iNOS purification buffer (10 mM K2HPO4, 10% glycerol, 0.5 mM L-arginine, pH 7.4) and 10 μM BH4. Inducible NOS was eluted with 30 ml iNOS purification buffer supplemented with 10 mM 2′(3′)-AMP, 10 μM BH4, and 0.3 M NaCl. The eluent was concentrated to 5 ml by ultrafiltration. The above concentration operation was repeated three times more with 10 ml Hepes buffer supplemented with 10 μM BH4, to give purified inducible NOS.
(§2) Nitric oxide formation from NOS was monitored by the hemoglobin capture assay as described previously. (Hevel, J. M.; Marletta, M. A. Nitric Oxide Synthase Assays. Methods Enzymol. 1994, […], 250-258).
(§3) The selectivity of an inhibitor is defined as the ratio of the respective Ki values.

[2] = biological target: T2, rat nNOS (Rattus norvegicus, UniProt P29476); test: NOS enzyme inhibitory assay (hemoglobin capture), nNOS; conditions: Table 1a; for Selectivity n/i: Ki(iNOS)/Ki(nNOS); for Ki: apparent Ki calculated from IC50, Km […], read-out: calc. Ki nNOS; for IC50: rat nNOS, 10 μM L-arginine
T2 construct: made in house; host or cells: E. coli (plasmid pCWnNOS)
Description: as §1
After approximately 48 h of post-induction incubation in the dark at 25° C. the cells were pelleted at 5300×g, transferred to 50 mL conical tubes, and stored at −80° C.
nNOS purification: Cell pellets from 2.0 L of culture were resuspended in sonication Buffer A (50 mM Tris Base Buffer, pH 8.0, 10% glycerol), 2 mg/ml lysozyme. 0.5 mM L-arginine. 1 mM EDTA, 0.1 mM PMSF, 1 µg/ml antipain, and 1 μM each of leupeptin, […], and […]) and lysed by sonication. Centrifugation for 1 h at 100000×g yielded supernatant which contained nNOS active enzyme. The supernatant was brought to 2 mM CaCl2 and the protein was loaded onto a 15 ml calmodulin-Sepharose column equilibrated with Buffer A containing 2 mM CaCl2. The column was washed with 100 ml Buffer B (50 mM Hepes, 5 mM DTT, and […]) containing 2 mM CaCl2, 0.5 mM L-arginine, and 10 μM BH4, and eluted with 30 ml Buffer B supplemented with 0.3 M NaCl, 5 mM EGTA, 0.5 mM L-arginine, and 10 μM BH4. The protein was then loaded onto a 5 ml 2′,5′-ADP-Sepharose column equilibrated with Buffer B supplemented with 0.3 M NaCl, 0.5 mM L-arginine, and 10 μM BH4. The column was washed with 25 ml Buffer B containing 0.5 mM L-arginine and 10 μM BH4, and then 25 ml of Buffer B only supplemented with 10 μM BH4 (without L-arginine). Neuronal NOS was eluted with 20 ml Buffer B supplemented with 10 mM 2′(3′)-AMP, 10 μM BH4 and 0.3 M NaCl. The 20 ml eluent was then concentrated to 5 ml by ultrafiltration. The above concentration operation was repeated twice more with 10 ml Buffer B supplemented with 10 µM BH4 to give the purified neuronal NOS.
Nitric oxide formation from NOS was monitored by the hemoglobin capture assay as described previously.
as §3

[3] = biological target: T3, bovine eNOS (Bos taurus, UniProt P29473); test: NOS enzyme inhibitory assay (hemoglobin capture), eNOS; conditions: Table 1b; read-out: Ki eNOS
T3 construct: made in house; host or cells: E. coli (plasmid Bov-eNOSpCW)
Description: as §1
Expression of bovine eNOS: An overnight culture of Bov-eNOSpCW was used to inoculate 0.5 liter (in a 2.8-liter Fernbach flask) of modified TB (20 g of yeast extract, 10 g of bacto-tryptone, 2.65 g of KH2PO4, 4.33 g of Na2HPO4 and 4 ml of glycerol per liter) containing ampicillin ([…]) and chloramphenicol ([…]). The cultures were grown to an OD600 of z0.8 at 22° C. (200 rpm) and induced with 0.5 mM IPTG. One hour before IPTG induction, d-aminolevulinic acid (0.5 mM final) was added and, at the time of IPTG induction, riboflavin ([…]) and ATP (1 mM final) were also added. After induction, the flasks were kept in the dark at 22° C. (200 rpm). The cells were harvested 48 h after induction, and the cell pellet was frozen at −80° C. until purification was carried out.
Purification of bovine eNOS. The purification was typically carried out with eNOS from 2 liters of E. coli culture. The eNOS protein was purified using a modification of the published protocol for nNOS (14). The cells were resuspended in buffer C [50 mM Tris-Cl, pH 7.8, 1 mM EDTA, 1 mM DTT, 10% glycerol (v/v), 150 mM NaCl, 0.1 mM phenylmethylsulfonyl fluoride, […]], lysed by pulsed sonication and then centrifuged to sediment the cell debris. The supernatant was applied to a 2′,5′-ADP Sepharose 4B column equilibrated in buffer D [50 mM Tris-Cl, pH 7.8, 0.1 mM EDTA, 0.1 mM dithiothreitol, 150 mM NaCl, 10% glycerol (v/v)]. The column was washed with 20 column volumes of buffer B and again with 20 column volumes of buffer B containing 600 mM NaCl. Finally, protein was eluted with buffer B containing 600 mM NaCl and 5 mM 2′-AMP. The fractions were screened for absorption in the Soret region (A400) and hemoprotein-containing fractions were pooled and concentrated (Centriprep 50, Amicon). Repeated dilution/concentration [50 mM Tris-Cl, pH 7.8, 0.1 mM EDTA, 0.1 mM dithiothreitol, 10% glycerol (vol/vol)] was used to reach a final concentration of 150 mM NaCl and commensurately reduce the 2′-AMP content. […] The purified eNOS is stored in the presence of 1 mM L-arginine.
eNOS washing: eNOS contains a significant amount of L-arginine, which will interfere with the enzyme assay. The L-arginine can be removed by several dilution and concentration steps using an Amico concentrator. The dilution buffer is 10 ml Tris-HCl 50 mM containing 0.1 mM EDTA, 400 mM NaCl, 10% glycerol and 1 mM beta-mercaptoethanol. The above dilution and concentration operation was repeated three times to give purified eNOS.
as §2, §3

Row | SMILES | Ki [1] | IC50 [1] | Selectivity n/i [2] | Ki [2] | IC50 [2] | Ki [3]
1 | Cl.Cl.Nc1cccc(CC2CN(Cc3ccccc3)CC2O)n1 (racemic) [Compound P-1] | 919 µM | 2030 µM | 11.71 | 78.5 µM | 682 µM | –
2 | Cl.Cl.Cl.Nc1cccc(C[C@H]2CN(Cc3ccccc3)C[C@@H]2NCCCc2ccccc2)n1 (racemic) [Compound P-2] | 60.1 µM | 132 µM | 4.3 | 14 µM | 122 µM | –
3 | Cl.Cl.Cl.Nc1cccc(C[C@H]2CN(Cc3ccccc3)C[C@@H]2NCCCO)n1 (racemic) [Compound P-3] | 1750 µM | 3860 µM | 9.19 | 190 µM | 1650 µM | –
4 | Cl.Cl.Cl.Nc1cccc(C[C@H]2CN(Cc3ccccc3)C[C@H]2NCCCc2ccccc2)n1 (racemic) [Compound P-4] | 609 µM | 1340 µM | 12.71 | 47.9 µM | 417 µM | –
5 | Cl.Cl.Cl.Nc1cccc(CC2CN(Cc3ccccc3)CC2NCCCO)n1 (racemic) [Compound P-5] | 2520 µM | 5560 µM | 8.27 | 305 µM | 2650 µM | –
6 | Cl.Cl.Cl.NCCN1C[C@H](Cc2cccc(N)n2)[C@@H](O)C1 (racemic) [Compound P-6] | 105 µM | 231 µM | 8.41 | 12.4 µM | 108 µM | –
7 | Cl.Cl.Cl.Cl.NCCN1CC(Cc2cccc(N)n2)C(NCCCc2ccccc2)C1 (racemic) [Compound P-7] | 438 µM | 965 µM | 109.99 | 3.98 µM | 34.6 µM | –
8 | NCCN1CC(Cc2cccc(N)n2)C(NCCCO)C1 (racemic) [Compound P-8] | 652 µM | 1440 µM | – | – | – | –
9 | Cl.Cl.Cl.Cl.NCCN1CC(Cc2cccc(N)n2)C(NCCCc2ccccc2)C1 (racemic) [Compound P-9] | 295 µM | 649 µM | 10.28 | 28.6 µM | 249 µM | –
10 | NCCN1C[C@H](Cc2cccc(N)n2)[C@H](NCCCO)C1 (racemic) [Compound P-10] | 1250 µM | 2760 µM | – | – | – | –
11 | Nc1cccc(CC2CNCC2NCCCO)n1 (racemic) [Compound P-13] | 234 µM | 515 µM | – | – | – | –
12 | Nc1cccc(C[C@H]2CNC[C@H]2NCCCO)n1 (racemic) [Compound P-28] | 143 µM | 315 µM | – | – | – | –
13 | Cl.Cl.Cl.Cl.NCCNC1CC(N)CC1Cc1cccc(N)n1 (racemic) [Compound P-44] | 51.9 µM | 114 µM | 21.02 | 2.47 µM | 21.5 µM | –
14 | Cl.Cl.Cl.Cl.NCCNC1CC(N)CC1Cc1cccc(N)n1 (racemic) [Compound P-45] | 71.5 µM | 158 µM | 15.51 | 4.61 µM | 40.1 µM | –
15 | Cc1cc(N)nc(CC2CNCC2NCCNCc2ccc(C(F)(F)F)cc2)c1.Cl.Cl.Cl.Cl (racemic) [Compound P-56] | – | – | – | – | – | 61.2 µM
16 | Cl.Cl.Cl.Cl.Nc1cccc(CC2CNCC2NCC2CCCN2)n1 (stereo not drawn) [Compound P-23] | 104 µM | 229 µM | 9.30 | 11.2 µM | 96.9 µM | –
17 | Cl.Cl.Cl.Cl.Nc1cccc(CC2CNCC2NCC2CCCN2)n1 (stereo not drawn) [Compound P-24] | 306 µM | 674 µM | 21.15 | 14.5 µM | 126 µM | –
18 | Cl.Cl.Cl.Cl.Nc1cccc(CC2CNCC2NCC2CCCN2)n1 (stereo not drawn) [Compound P-25] | 18.5 µM | 40.8 µM | 7.58 | 2.44 µM | 21.2 µM | –
19 | Cl.Cl.Cl.Cl.Nc1cccc(C[C@@H]2CNC[C@H]2NC[C@H]2CCCN2)n1 [Compound P-26] | 170 µM | 375 µM | 13.82 | 12.3 µM | 107 µM | –
20 | Cl.Cl.Cl.Cl.Nc1cccc(CC2CNCC2NCC2CCCN2)n1 (stereo not drawn) [Compound P-40] | 82.4 µM | 182 µM | 23.95 | 3.44 µM | 29.9 µM | –
21 | Cl.Cl.Cl.Cl.Nc1cccc(C[C@@H]2CNC[C@@H]2NC[C@@H]2CCCN2)n1 [Compound P-41] | 26.4 µM | 58.3 µM | 4.67 | 5.66 µM | 49.2 µM | –
22 | Cl.Cl.Cl.Cl.Nc1cccc(C[C@H]2CNC[C@H]2NC[C@H]2CCCN2)n1 [Compound P-42] | 70 µM | 154 µM | 31.97 | 2.19 µM | 19 µM | –
23 | Cl.Cl.Cl.Cl.Nc1cccc(C[C@@H]2CNC[C@@H]2NC[C@H]2CCCN2)n1 [Compound P-43] | 42 µM | 92.5 µM | 9.22 | 4.55 µM | 39.5 µM | –
